# Tests used:
# Experiment in all cases: […]-ATP peptide kinase assay with TLC, purified kinase
# Type in all cases: biochemical
# Btk = Btk (Homo sapiens, UniProt Q06187)
# Src = Src (Homo sapiens, UniProt P12931)
# Itk = molecular target: T1, Itk (Homo sapiens, UniProt Q08881)
# T1 sequence (Q08881 1-620): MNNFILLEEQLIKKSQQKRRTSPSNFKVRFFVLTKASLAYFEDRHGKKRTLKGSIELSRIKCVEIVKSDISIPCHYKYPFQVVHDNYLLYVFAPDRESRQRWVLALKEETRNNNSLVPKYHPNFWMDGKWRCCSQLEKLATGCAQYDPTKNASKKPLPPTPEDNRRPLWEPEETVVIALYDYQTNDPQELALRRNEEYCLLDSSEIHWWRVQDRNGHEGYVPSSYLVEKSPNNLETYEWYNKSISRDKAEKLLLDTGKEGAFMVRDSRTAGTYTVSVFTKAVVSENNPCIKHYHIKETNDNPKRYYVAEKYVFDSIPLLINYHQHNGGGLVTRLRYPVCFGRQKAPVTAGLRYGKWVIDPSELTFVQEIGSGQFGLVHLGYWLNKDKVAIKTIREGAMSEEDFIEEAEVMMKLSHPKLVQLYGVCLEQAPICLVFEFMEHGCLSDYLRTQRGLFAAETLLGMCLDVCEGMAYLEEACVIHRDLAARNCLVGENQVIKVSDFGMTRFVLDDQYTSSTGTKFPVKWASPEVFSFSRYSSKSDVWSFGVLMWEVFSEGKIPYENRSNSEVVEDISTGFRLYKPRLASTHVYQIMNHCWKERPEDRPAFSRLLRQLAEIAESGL
# Btk, sequence (Q06187 2-659): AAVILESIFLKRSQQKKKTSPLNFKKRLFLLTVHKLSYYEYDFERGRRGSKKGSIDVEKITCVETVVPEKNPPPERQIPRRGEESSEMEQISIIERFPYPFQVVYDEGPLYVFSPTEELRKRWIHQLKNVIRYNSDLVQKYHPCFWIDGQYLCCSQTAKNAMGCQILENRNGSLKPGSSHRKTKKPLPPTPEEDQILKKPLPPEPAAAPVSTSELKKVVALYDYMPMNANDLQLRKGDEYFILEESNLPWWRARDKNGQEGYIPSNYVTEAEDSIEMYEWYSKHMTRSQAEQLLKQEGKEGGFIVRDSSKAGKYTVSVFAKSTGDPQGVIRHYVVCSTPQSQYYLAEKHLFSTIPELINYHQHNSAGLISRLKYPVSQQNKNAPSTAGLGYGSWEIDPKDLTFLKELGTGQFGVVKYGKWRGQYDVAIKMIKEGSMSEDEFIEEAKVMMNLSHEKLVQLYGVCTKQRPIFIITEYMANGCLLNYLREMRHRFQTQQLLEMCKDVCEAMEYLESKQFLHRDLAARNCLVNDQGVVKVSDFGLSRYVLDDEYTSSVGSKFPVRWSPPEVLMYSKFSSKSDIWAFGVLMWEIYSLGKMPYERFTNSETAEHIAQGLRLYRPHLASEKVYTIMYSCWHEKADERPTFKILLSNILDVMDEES
# Src, sequence (P12931 2-536): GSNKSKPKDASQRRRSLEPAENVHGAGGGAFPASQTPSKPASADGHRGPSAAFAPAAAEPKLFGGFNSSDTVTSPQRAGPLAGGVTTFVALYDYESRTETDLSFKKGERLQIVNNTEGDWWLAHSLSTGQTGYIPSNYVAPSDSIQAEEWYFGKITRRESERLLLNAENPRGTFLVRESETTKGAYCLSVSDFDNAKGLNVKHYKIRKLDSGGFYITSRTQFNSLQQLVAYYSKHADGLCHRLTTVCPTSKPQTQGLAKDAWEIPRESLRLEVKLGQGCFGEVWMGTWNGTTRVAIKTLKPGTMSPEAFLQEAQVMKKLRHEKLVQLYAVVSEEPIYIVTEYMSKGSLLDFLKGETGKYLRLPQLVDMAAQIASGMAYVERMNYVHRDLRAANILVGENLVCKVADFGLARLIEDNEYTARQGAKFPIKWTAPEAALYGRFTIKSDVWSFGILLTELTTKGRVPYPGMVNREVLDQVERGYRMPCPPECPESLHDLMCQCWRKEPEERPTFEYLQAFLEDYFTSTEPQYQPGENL
structure (smiles),measurement,setting,value
"CC(C)Cc1nc2cc3c(cc2[nH]c1=O)nc(NC(=O)c1ccc(-c2ccncc2)cc1)n3CCCN1CCCCC1 [CTN06, N-(7-isobutyl-6-oxo-1-(3-(piperidin-1-yl)propyl)-5,6-dihydro-1H-imidazo[4,5-g]quinoxalin-2-yl)-4-(pyridin-4-yl)benzamide]",IC50,Btk,~50 nM
same,IC50,Src,~5 µM
same,"33P-ATP peptide kinase assay with TLC, purified kinase",Itk,"CTN06 appears to have the strongest activity toward Btk and Etk, followed by Itk, another member in the same family"
